In brackets after ≈: the same amount, converted by molar mass. Several values for one entry are separate records, joined by “and”; a condition that tells them apart may be missing. Equal values may be shown once. Read-outs that look alike come from different tables or passages of the source.
Legend:
[1] = tested on: pAKT S473; test: CyTOF maximal inhibition in Undefined/Immature Myeloid cells: pAKT; type: in vivo, human
Description: (§1) Pharmacodynamic endpoints included the measurement of inhibition of pAXL, pERK, pAKT, pS6 and pSTAT1/3/5 in blast cells (defined as cells with abnormal surface marker expression as compared to healthy donor peripheral blood mononuclear cells and undefined/immature myeloid cells (defined as cells carrying myeloid markers but lacking distinguishing terminal differentiation markers). Mass cytometry time of flight (CyTOF) was used for the determination of the pharmacodynamic markers using a previously validated and tested panel of mass-tagged antibodies[39],[40]. The antibodies in the panel are listed in Supplementary Table 5. Briefly, fixed leukocytes from peripheral blood were barcoded using a 20-plex metal barcoding kit (Standard Biotools, Cell-ID 201060) according to manufacturer’s protocol, allowing all the samples from a single individual to be stained and analysed in parallel. All analysis runs included barcoded peripheral blood mononuclear cells (PBMCs) from at least one healthy donor and an identical barcoded reference sample (mix of PBMCs from six healthy donors). […]
(§2) For each population, marker, and sample, the 95th percentile of the non-transformed expression values was calculated. […]

[2] = tested on: pERK1/2 T202/Y204; test: CyTOF maximal inhibition in Undefined/Immature Myeloid cells: pERK1/2; type: in vivo, human
Description: as §1, §2

[3] = tested on: Ret; parameters: method as in Investigator's Brochure (IB) version 5.0; conditions: ref Investigator's Brochure (IB) version 5.0; cited from earlier work
[4] = tested on: AML/MDS patients; test: ECG QTcF prolongation (Fridericia), graded; type: in vivo
Description: Electrocardiograms were obtained at screening, Cycle 1 Day 1–4, 8, and 15, Cycle 2 Day 1, 8 and 15, at Day 1 of each cycle thereafter, (up to and including Cycle 15), and at Final Study Visit. QT prolongation was assessed using the Fridericia correction QTcF=QT/RR3 [34]. Severity of QTcF prolongation was defined as follows: Grade 1: maximum prolongation 450–480 ms; Grade 2: maximum prolongation 481-500 ms; Grade 3: ≥501 ms on at least two separate ECGs; Grade 4: ≥501 ms or >60 ms change from baseline, with Torsades de pointes, polymorphic ventricular tachycardia or signs/symptoms of serious arrythmia; Grade 5: Death.

[5] = tested on: pSTAT5 Y694; test: CyTOF maximal inhibition in Undefined/Immature Myeloid cells: pSTAT5; type: in vivo, human
Description: as §1, §2

[6] = tested on: Ret; parameters: method as in Investigator's Brochure (IB) version 5.0; conditions: ref Investigator's Brochure (IB) version 5.0; cited from earlier work; remark: listed apart in the source
[7] = tested on: bone marrow cells from patients with primary AML; parameters: method as in Ben-Batalla et al., 2013; conditions: ref Ben-Batalla et al., 2013; cited from earlier work
[8] = molecular target: Ret; parameters: method as in Investigator's Brochure (IB) version 5.0; conditions: ref Investigator's Brochure (IB) version 5.0; cited from earlier work; remark: listed apart in the source
[9] = tested on: CYP3A4/5; parameters: method as in Investigator's Brochure (IB) version 5.0; conditions: ref Investigator's Brochure (IB) version 5.0; cited from earlier work
[10] = tested on: AML/MDS patients; test: Dose-limiting toxicity assessment, 3+3 dose escalation; type: in vivo
Description: The study consisted of a phase 1b dose escalation, followed by a phase 2a cohort expansion. […] Due to the introduction of an enhanced formulation, the study was extended with a second dose escalation cohort following a 3 + 3 study design, also with expansion at the selected dose (Fig. 1).
The conventional 3 + 3 study design gives a 71% chance of escalation if the true but unknown rate of DLT is 20%, and <50% chance of escalation if the true but unknown rate of DLT is >30%. […] Based on a one-sided, within-group test of proportions comparing an anticipated ORR of >20% against the null hypothesis rate of 5%, with power 80% and type I error 0.2 (suitable as evidence of a trend worthy of future study), a sample size of up to 14 evaluable patients was selected for B2. On the same basis, for B5 an initial sample size of 14 relapsed and 14 refractory AML patients was planned. However, upon regulatory review by the FDA, this was reduced to 20 R/R AML patients with 4 refractory AML patients. For this early-stage study, the efficacy analyses are secondary endpoints, and no account was taken of the multiplicity inherent in the assessment of several, presumably non-independent criteria, for ORR.

Nc1nc(Nc2ccc3c(c2)CC[C@@H](N2CCCC2)CC3)nn1-c1cc2c(nn1)-c1ccccc1CCC2 [Bemcentinib]
EC50 ([1]; Homo sapiens, Undefined/Immature Myeloid cells, N = 12 patients, read-out: EC50 (± standard error), pAKT S473 inhibition): 0.162 µg/mL (≈ 0.32 µM)
Maximum inhibition (percent) pAKT (S473) ([1]; Supplementary Figure 1d, individual patients): 59.9% and 67.4% and 81.4% and 10.2% and 98.8% and 2.4% and 56.3% and 0% and 5.8% and 33.9% and 39.1% and 94.9%
EC50 ([2]; Homo sapiens, Undefined/Immature Myeloid cells, N = 12 patients, read-out: EC50 (± standard error), pERK1/2 T202/Y204 inhibition): 0.0873 ± 0.0017 µg/mL (≈ 0.172 µM)
Maximum inhibition (percent) pERK1/2 (T202/Y204) ([2]; Supplementary Figure 1c, individual patients): 87.1% and 71.6% and 100% and 8.8% and 98.1% and 30.4% and 66.9% and 0% and 5.7% and 94.5% and 39.2% and 69.3%
IC50 [3]: 38 nM
Grade 4 or Grade 5 QTcF prolongation events ([4]; DE and LDAC cohorts): No patients
No. of QTcF prolonged events: Grade 5 ([4]; Dose Escalation Cohort Overall (N=36)): 0
No. of QTcF prolonged events: Grade 1 ([4]; human, in vivo): 8
No. of QTcF prolonged events: Grade 2 ([4]; human, in vivo): 7
No. of QTcF prolonged events: Grade 3 ([4]; human, in vivo): 5
No. of QTcF prolonged events: Grade 4 ([4]; human, in vivo): 0
Patients with only Grade 1 or Grade 2 QTcF prolongation / patients with QTcF prolongation ([4]; human, in vivo): 5/9
Patients with Grade 3 QTcF prolongation ([4]; in vivo): Four
EC50 ([5]; Homo sapiens, Undefined/Immature Myeloid cells, N = 12 patients, read-out: EC50 (± standard error), pSTAT5 Y694 inhibition): 0.0913 ± 0.0014 µg/mL (≈ 0.18 µM)
Maximum inhibition (percent) pSTAT5 (Y694) ([5]; Supplementary Figure 1b, individual patients): 86.7% and 72.9% and 100% and 27.9% and 21.4% and 51.2% and 0% and 36% and 58.4%
IC50 [6]: > 316 nM
Patients whose bone marrow cells were sensitive to BGB324 [7]: 7 out of 11
Sensitization of primary patient AML cells to Ara-C [7]: sensitizes
Kd [8]: 73 nM
Substrate and time-dependent inhibition of CYP3A4/5 activity [9]: modest
Formal criteria for a maximum tolerated dose ([10]; DE cohort): not met
Recommended phase 2 dose (loading/maintenance) ([10]; human, in vivo, 3 weeks): 400/200
Dose-limiting toxicities (DLT) observed ([10]; in vivo): Three

Source: article PMC11930985 (Nature Communications, 2025)
